Experimental data from paper doi:10.1101/2021.04.08.439011v1 (biorxiv, 2021).

Key:
Details in all cases: 1 µM; binder
[1] = biological target: CHEK1 (Homo sapiens, UniProt O14757)
[2] = biological target: PIK3CA (Homo sapiens, UniProt P42336)
[3] = biological target: MEK2 (Homo sapiens, UniProt P36507)
[4] = biological target: PIP4K2C (Homo sapiens, UniProt Q8TBX8)
[5] = biological target: TRKB (Homo sapiens, UniProt Q16620)
[6] = biological target: MAST1 (Homo sapiens, UniProt Q9Y2H9)
[7] = biological target: RET(V804L) (Homo sapiens, UniProt P07949, V804L)
[8] = biological target: BRAF (Homo sapiens, UniProt P15056)
[9] = biological target: RIPK4 (Homo sapiens, UniProt P57078)
[10] = biological target: MAP3K15 (Homo sapiens, UniProt Q6ZN16)
[11] = biological target: TESK1 (Homo sapiens, UniProt Q15569)
[12] = biological target: SGK2 (Homo sapiens, UniProt Q9HBY8)
[13] = biological target: MST3 (Homo sapiens, UniProt Q9Y6E0)
[14] = biological target: STK16 (Homo sapiens, UniProt O75716)
[15] = biological target: PAK6 (Homo sapiens, UniProt Q9NQU5)
[16] = biological target: BLK (Homo sapiens, UniProt P51451)
[17] = biological target: PRKG2 (Homo sapiens, UniProt Q13237)
[18] = biological target: EPHB1 (Homo sapiens, UniProt P54762)
[19] = biological target: FLT3(ITD,D835V) (Homo sapiens, UniProt P36888, D835V/ITD)
[20] = biological target: MET(M1250T) (Homo sapiens, UniProt P08581, M1250T)
[21] = biological target: MLK1 (Homo sapiens, UniProt P80192)
[22] = biological target: RET(M918T) (Homo sapiens, UniProt P07949, M918T)
[23] = biological target: CIT (Homo sapiens, UniProt O14578)
[24] = biological target: LKB1 (Homo sapiens, UniProt Q15831)
[25] = biological target: HIPK4 (Homo sapiens, UniProt Q8NE63)
[26] = biological target: TNNI3K (Homo sapiens, UniProt Q59H18)
[27] = biological target: CSNK1D (Homo sapiens, UniProt P48730)
[28] = biological target: EGFR(T790M) (Homo sapiens, UniProt P00533, T790M)
[29] = biological target: MYLK3 (Homo sapiens, UniProt Q32MK0)
[30] = biological target: PRKCI (Homo sapiens, UniProt P41743)

Sequence of BRAF (P15056 whole entry): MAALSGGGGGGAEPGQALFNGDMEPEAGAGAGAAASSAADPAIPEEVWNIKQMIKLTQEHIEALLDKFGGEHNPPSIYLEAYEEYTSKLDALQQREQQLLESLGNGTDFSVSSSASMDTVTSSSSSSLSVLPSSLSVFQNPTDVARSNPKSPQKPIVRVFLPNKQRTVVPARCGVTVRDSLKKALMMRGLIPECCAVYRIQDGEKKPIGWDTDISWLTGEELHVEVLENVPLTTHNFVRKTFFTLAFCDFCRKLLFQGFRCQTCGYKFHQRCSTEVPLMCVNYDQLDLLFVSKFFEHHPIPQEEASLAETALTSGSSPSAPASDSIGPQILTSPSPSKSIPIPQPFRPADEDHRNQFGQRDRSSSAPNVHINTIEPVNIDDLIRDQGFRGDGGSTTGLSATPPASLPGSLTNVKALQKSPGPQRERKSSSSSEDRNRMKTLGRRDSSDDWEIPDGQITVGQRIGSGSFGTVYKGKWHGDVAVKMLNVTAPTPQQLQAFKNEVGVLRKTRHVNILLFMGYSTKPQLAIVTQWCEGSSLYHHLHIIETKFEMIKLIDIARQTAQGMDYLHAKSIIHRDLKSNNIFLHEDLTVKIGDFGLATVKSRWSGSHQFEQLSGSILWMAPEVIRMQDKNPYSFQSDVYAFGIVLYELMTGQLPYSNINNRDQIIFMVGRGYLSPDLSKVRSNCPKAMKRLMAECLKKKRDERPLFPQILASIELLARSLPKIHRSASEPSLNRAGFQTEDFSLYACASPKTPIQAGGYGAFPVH
Sequence of MEK2 (P36507 whole entry): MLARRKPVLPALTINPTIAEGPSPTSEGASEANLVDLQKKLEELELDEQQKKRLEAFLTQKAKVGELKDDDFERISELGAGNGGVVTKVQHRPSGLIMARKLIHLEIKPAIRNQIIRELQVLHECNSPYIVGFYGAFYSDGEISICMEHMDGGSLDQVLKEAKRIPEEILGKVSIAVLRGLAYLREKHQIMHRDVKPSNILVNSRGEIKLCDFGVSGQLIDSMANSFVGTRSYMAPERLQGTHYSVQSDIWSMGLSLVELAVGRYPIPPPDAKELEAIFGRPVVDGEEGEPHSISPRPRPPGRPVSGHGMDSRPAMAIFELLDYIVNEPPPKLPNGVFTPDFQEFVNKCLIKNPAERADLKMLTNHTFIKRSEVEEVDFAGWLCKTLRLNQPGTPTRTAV
Sequence of EPHB1 (P54762 whole entry): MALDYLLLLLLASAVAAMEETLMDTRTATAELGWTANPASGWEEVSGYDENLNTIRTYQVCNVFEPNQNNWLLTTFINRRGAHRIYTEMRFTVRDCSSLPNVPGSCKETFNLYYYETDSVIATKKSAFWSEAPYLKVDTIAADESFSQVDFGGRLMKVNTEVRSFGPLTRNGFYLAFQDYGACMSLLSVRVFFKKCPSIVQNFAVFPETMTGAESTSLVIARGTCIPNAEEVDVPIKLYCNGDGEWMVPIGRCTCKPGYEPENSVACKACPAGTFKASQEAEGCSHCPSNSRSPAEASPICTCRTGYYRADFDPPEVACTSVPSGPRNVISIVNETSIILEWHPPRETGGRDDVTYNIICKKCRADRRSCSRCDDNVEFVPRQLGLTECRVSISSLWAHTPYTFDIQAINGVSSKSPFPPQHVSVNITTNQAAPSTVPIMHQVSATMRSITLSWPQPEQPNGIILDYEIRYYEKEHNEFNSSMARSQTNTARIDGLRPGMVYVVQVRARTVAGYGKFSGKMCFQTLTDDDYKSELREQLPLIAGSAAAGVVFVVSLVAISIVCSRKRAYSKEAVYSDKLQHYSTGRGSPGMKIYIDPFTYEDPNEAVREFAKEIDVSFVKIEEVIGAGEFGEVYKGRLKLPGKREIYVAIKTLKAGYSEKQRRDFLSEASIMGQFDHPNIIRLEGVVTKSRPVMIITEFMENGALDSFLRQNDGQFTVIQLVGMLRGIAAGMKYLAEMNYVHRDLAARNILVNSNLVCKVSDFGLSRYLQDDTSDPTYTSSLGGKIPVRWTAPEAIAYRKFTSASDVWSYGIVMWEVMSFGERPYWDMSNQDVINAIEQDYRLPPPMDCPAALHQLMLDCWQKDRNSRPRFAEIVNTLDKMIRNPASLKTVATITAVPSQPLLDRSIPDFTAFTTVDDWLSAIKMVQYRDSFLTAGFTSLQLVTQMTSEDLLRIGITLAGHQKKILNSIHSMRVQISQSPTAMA
Sequence of SGK2 (Q9HBY8 whole entry): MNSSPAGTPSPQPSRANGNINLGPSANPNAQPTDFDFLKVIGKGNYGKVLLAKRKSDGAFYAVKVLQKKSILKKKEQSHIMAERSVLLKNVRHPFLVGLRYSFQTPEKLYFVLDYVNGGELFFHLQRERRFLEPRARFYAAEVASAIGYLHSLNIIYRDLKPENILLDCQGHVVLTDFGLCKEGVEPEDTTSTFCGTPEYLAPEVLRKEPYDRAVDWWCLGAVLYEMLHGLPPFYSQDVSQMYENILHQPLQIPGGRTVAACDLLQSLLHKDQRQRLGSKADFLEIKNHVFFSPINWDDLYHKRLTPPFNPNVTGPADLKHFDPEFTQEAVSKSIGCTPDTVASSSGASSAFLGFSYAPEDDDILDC
Sequence of PIP4K2C (Q8TBX8 whole entry): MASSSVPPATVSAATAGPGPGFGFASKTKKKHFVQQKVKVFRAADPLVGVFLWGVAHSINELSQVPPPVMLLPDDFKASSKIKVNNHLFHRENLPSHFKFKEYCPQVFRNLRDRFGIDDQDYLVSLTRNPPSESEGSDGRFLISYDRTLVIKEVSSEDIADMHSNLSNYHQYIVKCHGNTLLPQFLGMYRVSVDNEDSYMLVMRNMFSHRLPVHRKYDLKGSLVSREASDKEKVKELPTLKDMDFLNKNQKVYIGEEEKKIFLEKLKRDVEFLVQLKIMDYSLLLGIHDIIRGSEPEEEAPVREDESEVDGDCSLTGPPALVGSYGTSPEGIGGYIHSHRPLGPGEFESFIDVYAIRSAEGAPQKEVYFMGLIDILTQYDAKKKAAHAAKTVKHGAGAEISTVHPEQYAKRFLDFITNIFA
Sequence of TNNI3K (Q59H18 whole entry): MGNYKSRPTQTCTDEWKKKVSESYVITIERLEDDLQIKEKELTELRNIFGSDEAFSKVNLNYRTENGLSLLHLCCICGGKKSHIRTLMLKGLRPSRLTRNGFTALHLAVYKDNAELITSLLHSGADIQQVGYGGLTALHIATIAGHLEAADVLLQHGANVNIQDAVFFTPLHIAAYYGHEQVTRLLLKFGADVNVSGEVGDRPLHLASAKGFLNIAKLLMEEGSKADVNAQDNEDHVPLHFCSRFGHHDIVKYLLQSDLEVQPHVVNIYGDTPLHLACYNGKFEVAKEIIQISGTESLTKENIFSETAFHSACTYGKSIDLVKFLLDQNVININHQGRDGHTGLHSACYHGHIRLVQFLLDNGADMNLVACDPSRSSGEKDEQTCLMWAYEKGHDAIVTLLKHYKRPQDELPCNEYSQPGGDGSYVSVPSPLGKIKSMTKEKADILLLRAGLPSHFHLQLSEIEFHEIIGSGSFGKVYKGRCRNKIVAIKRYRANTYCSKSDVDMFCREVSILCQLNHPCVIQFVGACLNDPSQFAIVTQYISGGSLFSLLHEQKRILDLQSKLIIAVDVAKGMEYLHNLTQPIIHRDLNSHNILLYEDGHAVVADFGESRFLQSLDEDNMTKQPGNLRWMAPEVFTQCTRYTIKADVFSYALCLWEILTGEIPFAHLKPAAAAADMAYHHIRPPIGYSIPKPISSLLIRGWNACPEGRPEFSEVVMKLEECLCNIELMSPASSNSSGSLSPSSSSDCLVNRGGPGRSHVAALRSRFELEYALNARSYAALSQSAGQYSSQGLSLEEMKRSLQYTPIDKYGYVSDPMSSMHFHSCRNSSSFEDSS
Sequence of TRKB (Q16620 whole entry): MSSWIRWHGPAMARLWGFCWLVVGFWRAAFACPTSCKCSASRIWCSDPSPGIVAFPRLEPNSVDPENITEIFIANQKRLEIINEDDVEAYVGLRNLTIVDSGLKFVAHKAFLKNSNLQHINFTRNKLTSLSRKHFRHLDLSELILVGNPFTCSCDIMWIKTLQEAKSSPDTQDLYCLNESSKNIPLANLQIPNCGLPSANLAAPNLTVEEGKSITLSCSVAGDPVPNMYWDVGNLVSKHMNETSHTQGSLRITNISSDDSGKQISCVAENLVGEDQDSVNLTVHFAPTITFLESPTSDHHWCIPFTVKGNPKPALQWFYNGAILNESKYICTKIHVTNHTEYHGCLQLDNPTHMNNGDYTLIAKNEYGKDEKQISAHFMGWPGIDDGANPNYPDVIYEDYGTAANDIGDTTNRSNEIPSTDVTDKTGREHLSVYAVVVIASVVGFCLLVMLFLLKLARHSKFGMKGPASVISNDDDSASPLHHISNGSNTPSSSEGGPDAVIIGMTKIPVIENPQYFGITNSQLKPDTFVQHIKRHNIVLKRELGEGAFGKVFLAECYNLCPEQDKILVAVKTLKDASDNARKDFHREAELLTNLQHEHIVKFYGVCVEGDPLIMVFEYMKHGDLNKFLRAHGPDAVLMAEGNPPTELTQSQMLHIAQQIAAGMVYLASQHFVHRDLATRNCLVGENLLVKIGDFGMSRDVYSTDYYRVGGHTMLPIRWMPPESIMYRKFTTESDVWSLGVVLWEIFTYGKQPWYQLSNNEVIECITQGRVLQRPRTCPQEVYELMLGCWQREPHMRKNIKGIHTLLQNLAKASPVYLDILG
Sequence of CSNK1D (P48730 whole entry): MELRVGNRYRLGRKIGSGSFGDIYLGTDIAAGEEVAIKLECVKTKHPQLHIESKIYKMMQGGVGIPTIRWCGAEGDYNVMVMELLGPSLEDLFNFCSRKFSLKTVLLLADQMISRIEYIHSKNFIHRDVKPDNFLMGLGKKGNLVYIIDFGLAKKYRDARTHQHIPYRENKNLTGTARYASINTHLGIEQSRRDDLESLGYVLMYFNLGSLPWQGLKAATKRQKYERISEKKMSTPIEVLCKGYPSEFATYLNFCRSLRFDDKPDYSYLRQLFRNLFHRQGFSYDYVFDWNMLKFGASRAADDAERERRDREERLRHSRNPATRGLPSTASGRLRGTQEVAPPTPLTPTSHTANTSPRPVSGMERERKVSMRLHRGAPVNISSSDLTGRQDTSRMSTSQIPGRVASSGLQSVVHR

**Q.** Which “Percent Control” value [1] does the source give for CNc1ncc2cc(-c3ccc(-c4cccc(C)n4)cc3Cl)c(=O)n(C[C@H]3OC[C@H](N)CO3)c2n1 [compound 6, G-5555] here?
**A.** Its value is 100%.

**Q.** And the “Percent Control” value [2]?
**A.** The value was 100%.

**Q.** What about the “Percent Control” value [3] of the same molecule?
**A.** Its value is 1.4%.

**Q.** And the “Percent Control” value [4]?
**A.** The value was 26%.

**Q.** What about the “Percent Control” value [5] of the same molecule?
**A.** The value was 100%.

**Q.** And the “Percent Control” value [6]?
**A.** The value was 0.4%.

**Q.** And the “Percent Control” value [7]?
**A.** The value was 100%.

**Q.** What about the “Percent Control” value [8] of the same molecule?
**A.** The value was 100%.

**Q.** And the “Percent Control” value [9]?
**A.** The value was 100%.

**Q.** And the “Percent Control” value [10]?
**A.** The value was 48%.

**Q.** What about the “Percent Control” value [11] of the same molecule?
**A.** Its value is 99%.

**Q.** And the “Percent Control” value [12]?
**A.** The value was 100%.

**Q.** And the “Percent Control” value [13]?
**A.** Its value is 1.7%.

**Q.** And the “Percent Control” value [14]?
**A.** Its value is 69%.

**Q.** What about the “Percent Control” value [15] of the same molecule?
**A.** The value was 45%.

**Q.** What about the “Percent Control” value [16] of the same molecule?
**A.** The value was 99%.

**Q.** And the “Percent Control” value [17]?
**A.** Its value is 94%.

**Q.** And the “Percent Control” value [18]?
**A.** The value was 100%.

**Q.** What about the “Percent Control” value [19] of the same molecule?
**A.** The value was 74%.

**Q.** What about the “Percent Control” value [20] of the same molecule?
**A.** Its value is 45%.

**Q.** What about the “Percent Control” value [21] of the same molecule?
**A.** The value was 96%.

**Q.** And the “Percent Control” value [22]?
**A.** The value was 100%.

**Q.** What about the “Percent Control” value [23] of the same molecule?
**A.** The value was 100%.

**Q.** And the “Percent Control” value [24]?
**A.** Its value is 100%.

**Q.** And the “Percent Control” value [25]?
**A.** The value was 100%.

**Q.** What about the “Percent Control” value [26] of the same molecule?
**A.** Its value is 98%.

**Q.** What about the “Percent Control” value [27] of the same molecule?
**A.** Its value is 100%.

**Q.** And the “Percent Control” value [28]?
**A.** The value was 85%.

**Q.** What about the “Percent Control” value [29] of the same molecule?
**A.** Its value is 100%.

**Q.** What about the “Percent Control” value [30] of the same molecule?
**A.** The value was 63%.
